Experimental data taken from US20250255293A1, “TISSUE DECONTAMINATION AND PRESERVATION SYSTEM” (priority 2024, published 2025).
Several values for one entry are separate records, joined by “and”; a condition that tells them apart may be missing. Equal values may be shown once.

Experiments:
[1] = system: bacteria (quantitative bacterial cultures); test: Quantitative bacterial cultures, in vivo reimplantation of decontaminated fracture fragment (Example 4); set-up: species or system canine; conditions: individual dogs
Method: (§1) A grade 3 open femoral bicondylar fracture was created in 3 canines. A lateral parapatellar approach was used, the fragment was cultured and retrieved. The fragment was irrigated, treated with 0.002% chlorhexidine for 20 minutes, irrigated, and stored in MOPS® for 7 days, after which the fragment was reimplanted, and both condyles were repaired with 3.5 mm cannulated lag screws. After 3 months, quantitative bacterial cultures (CFU/g; Table 2) and functional outcomes (Table 3) were measured.

[2] = system: canines with grade 3 open femoral bicondylar fracture; test: Functional outcomes after reimplantation of decontaminated fracture fragment (Example 4); type: in vivo, canine
Method: as §1

[3] = system: chondrocytes of osteoarticular fracture fragments; test: Viable chondrocyte density / % VCD, live-dead assay (Example 5); type: cell-based; conditions: for % VCD (percentage of mean VCD of healthy day-0 samples): 20 min immersion (10% povidone-iodine or 0.002% chlorhexidine gluconate)
Method: Skeletally mature purpose-bred research hounds (n=16) were humanely euthanized for purposes unrelated to the present study. Immediately following euthanasia, each dog was positioned in sternal recumbency with one forelimb extended and secured in a custom-made positioning apparatus. Fur was not clipped and no aseptic preparation or decontamination techniques were performed. Using a validated technique, a penetrating captive bolt stunner pistol (CASH Special, FRONTMATEC, Birmingham, United Kingdom) with a 1.25 grain cartridge was centered on the cranial (anterior) aspect of the distal humerus, immediately proximal to the elbow joint and with firm pressure against the secured elbow, the pistol was discharged, creating type 3 open distal humeral fractures. After the fractures were induced and radiographs obtained, the skin and soft tissues were aseptically removed. For each elbow (n=32), osteoarticular tissues were obtained from the distal humerus, proximal radius and proximal ulna such that 96 contaminated, devascularized, osteoarticular fracture fragments were randomly allocated to undergo treatment using one of the following protocols for comparison: 1)⋅Betadine (n=42): bulb irrigation using 1 L of 0.9% saline, followed by immersion in 10% povidone-iodine solution for 20 min, followed by bulb irrigation using 1 L of 0.9% saline; 2)⋅Chlorhexidine (n=42): bulb irrigation using 1 L of 0.9% saline, followed by immersion in 0.002% chlorhexidine gluconate solution immersion for 20 min, followed by bulb irrigation using 1 L of 0.9% saline; and 3)⋅Injured Control (n=12): no decontamination treatment. Each fragment was then immediately placed in 200 ml of Missouri Osteochondral Preservation System (MOPS®) solution in individual sterile closed containers, transported to the on-site laboratory and placed in a dedicated storage cabinet in standard room temperature and humidity conditions for 7 or 14 days.
Viable Chondrocyte Density. At days 7 (n=21) or 14 (n=21) of storage, osteoarticular tissues were collected and processed for assessment of viable chondrocyte density (VCD). VCD was assessed using a live-dead assay involving calcein AM (live stain) and ethidium homodimer (dead stain). Briefly, tissues were sagittally sectioned using a Buchler Isomet low speed saw (Lake Bluff, IL, USA) to produce representative 1 mm-thick sections from each. Sections were placed in 6-well plates containing calcein AM (1 μg/ml) solution and ethidium homodimer (1 μM) in Phosphate Buffered Saline (PBS). The plates were incubated for 30 minutes at 37° C. After incubation, the stain was removed, the samples rinsed in PBS and tissues were mounted to the bottom of the plate using a 4% agarose solution. Fluorescent microscopy was used to obtain two images per section, which were analyzed to quantify tissue viability based on VCD. The VCD was determined by counting the number of viable cells in each image and dividing this by the area of the tissue in the image (#of viable cells/area of cartilage tissue mm^2). The percentage of viable chondrocyte density (% VCD) for each fracture fragment was calculated based on the mean VCD of healthy day-0 samples using the formula: (fractured VCD/control VCD)×100.
Statistical Analysis. All data were analyzed using statistical software R Studio, version 4.3.1 (Posit Software, Boston, MA, USA). Descriptive statistics for VCD, % VCD and CFU were calculated to report means, standard deviations, ranges and percentages. […]

Staphylococcus aureus = conditions: 20-minute immersion in 2% chlorhexidine, grossly contaminated bone segments; cited from earlier work
[4] = 3 months after reimplantation of fragment treated with 0.002% chlorhexidine and stored in MOPS 7 days

[H]/N=C(\N/C(=N/[H])NCCCCCCNC(=N)NC(=N)Nc1ccc(Cl)cc1)Nc1ccc(Cl)cc1 [Chlorhexidine, chlorhexidine gluconate]
quantitative bacterial culture, Endpoint, Fracture Fragment ([1]; 3 months after reimplantation): 0 CFU/g
quantitative bacterial culture, Endpoint, Synovium ([1]; 3 months after reimplantation): 0 CFU/g
quantitative bacterial culture, Reimplantation, MOPS Media ([1]; after 0.002% chlorhexidine 20 min and 7 days storage in MOPS): 0 CFU/g
quantitative bacterial culture, Initial Trauma, Fracture Fragment ([1]; baseline, before 0.002% chlorhexidine treatment): 355 CFU/g and 0 CFU/g and 41 CFU/g
quantitative bacterial culture, Initial Trauma, Synovium ([1]; baseline, before treatment): 0 CFU/g (2×) and 119 CFU/g
Function (VAS) Post [2, 4]: 9 and 8.8 and 9.3
ROM Post [2, 4]: 101 degrees and 97 degrees and 104 degrees
Pain (VAS) Post ([2]; Post, individual dogs): 0
Pain (VAS) Pre ([2]; Pre, individual dogs): 1.2 and 1.9 and 0.6
Function (VAS) Pre ([2]; baseline, individual dogs): 10
ROM Pre ([2]; baseline, individual dogs): 108 degrees and 107 degrees and 109 degrees
maintenance of minimum essential chondrocyte viability (in words) ([3]; 0.002% chlorhexidine immersion 20 min, shelf-stable storage in MOPS): maintaining minimum essential chondrocyte viability for up to 14 days
% VCD (percentage of mean VCD of healthy day-0 samples) ([3]; Day 7 of MOPS storage): 75.7 ± 24.2%
% VCD (percentage of mean VCD of healthy day-0 samples) ([3]; Day 14 of MOPS storage): 70.1 ± 24.1%
% VCD compared with other groups (in words) ([3]; days 7 and 14): significantly (p<0.001) higher than for the Betadine and Injured Control groups
mean % VCD versus minimum essential threshold ([3]; days 7 and 14 of MOPS storage): > 70%
removal of Staphylococcus aureus burden (Staphylococcus aureus): > 99%
